Values of other authors as cited in patent publication US20230210769A1, “METHODS OF TREATMENT USING NICLOSAMIDE” (priority 2020, published 2023).

Tests used:
[1] = test system: SARS-CoV, influenza virus, MERS-CoV, ZIKV, JEV, HCV, EBOV, HRVs, CHIKV, HAdV, EBV
[2] = test system: SARS-CoV-2 (a.k.a. 2019-nCoV)

O=C(Nc1ccc([N+](=O)[O-])cc1Cl)c1cc(Cl)ccc1O [niclosamide, 5-chloro-N-(2-chloro-4-nitrophenyl)-2-hydroxybenzamide]
anti-viral effects in vitro against various viral infections [1]: anti-viral effects in vitro | anti-viral effects against SARS-CoV-2 [2]: anti-viral effects
